According to patent US10323038B2, “Pyrazole compounds and methods of making and using same” (ABIDE THERAPEUTICS, INC., priority 2015, dated 2019):

How the values were obtained:
[1] = biological target: FAAH (Mus musculus (Mouse), UniProt O08914); assay: In vitro competitive activity-based protein profiling, FAAH (mouse); format: biochemical; details: for inhibition at 1 µM: read-out: FAAH % inh. 1 μM (mouse)
Procedure, shortened: (§1)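 Residual MAGL and FAAH activity quantified from fluorescent gel bands after SDS-PAGE. Before that, FP-Rh or HT-01 probe (50 μM stock) labelled for 30 min at 37 °C, following 30 min inhibitor preincubation. Mouse assays used brain membrane fraction or cell lysates, human used prefrontal cortex or cell membranes, all at 1.0 mg/mL protein.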

[2] = biological target: MAGL (Mus musculus (Mouse), UniProt O35678); assay: In vitro competitive activity-based protein profiling, MAGL (mouse); format: biochemical; details: for inhibition at 1 µM: read-out: MAGL % inh. 1 μM (mouse)
Procedure, shortened: as §1

FAAH, sequence (O08914 whole entry): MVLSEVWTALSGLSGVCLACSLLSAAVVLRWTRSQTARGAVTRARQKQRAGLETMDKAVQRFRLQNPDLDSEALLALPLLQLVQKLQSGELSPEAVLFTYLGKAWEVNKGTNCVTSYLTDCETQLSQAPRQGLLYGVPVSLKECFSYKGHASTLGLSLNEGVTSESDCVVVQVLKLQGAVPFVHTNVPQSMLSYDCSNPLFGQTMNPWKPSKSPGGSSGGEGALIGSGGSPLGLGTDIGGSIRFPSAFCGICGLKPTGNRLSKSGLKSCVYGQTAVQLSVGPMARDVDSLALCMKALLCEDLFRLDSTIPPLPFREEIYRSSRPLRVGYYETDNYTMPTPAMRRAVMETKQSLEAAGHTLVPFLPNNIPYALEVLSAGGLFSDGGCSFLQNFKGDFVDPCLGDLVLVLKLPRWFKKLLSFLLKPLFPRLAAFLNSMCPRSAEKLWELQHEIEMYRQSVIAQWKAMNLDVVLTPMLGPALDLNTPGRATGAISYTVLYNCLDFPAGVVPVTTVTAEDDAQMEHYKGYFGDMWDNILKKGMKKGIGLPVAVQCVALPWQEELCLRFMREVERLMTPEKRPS
MAGL, sequence (O35678 whole entry): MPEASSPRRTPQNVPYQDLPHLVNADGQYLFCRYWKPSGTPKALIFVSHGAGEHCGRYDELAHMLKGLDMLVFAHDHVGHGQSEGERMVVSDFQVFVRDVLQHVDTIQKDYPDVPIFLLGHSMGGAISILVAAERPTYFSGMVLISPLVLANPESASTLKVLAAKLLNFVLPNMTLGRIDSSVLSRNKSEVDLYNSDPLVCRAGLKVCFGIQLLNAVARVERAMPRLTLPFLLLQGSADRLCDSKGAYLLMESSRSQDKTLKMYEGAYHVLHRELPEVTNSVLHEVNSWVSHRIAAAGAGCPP

SMILES: CC(=O)N(C)c1cnn(C(=O)N2CCC3(CCN(Cc4cc(N5CCCC5)ccc4C(F)(F)F)C3)C2)c1 (stereo not drawn) [Example 73, N-methyl-N-(1-(7-(5-(pyrrolidin-1-yl)-2-(trifluoromethyl)benzyl)-2,7-diazaspiro[4.4]nonane-2-carbonyl)-1H-pyrazol-4-yl)acetamide]
- inhibition at 1 µM [1]: ≥ 75%
- inhibition at 1 µM [2]: ≥ 75%

SMILES: CS(=O)(=O)Nc1cnn(C(=O)N2CCN(Cc3cc(Cl)cc(C(F)(F)F)c3)CC2)c1 [Example 294, N-(1-(4-(3-chloro-5-(trifluoromethyl)benzyl)piperazine-1-carbonyl)-1H-pyrazol-4-yl)methanesulfonamide]
- inhibition at 1 µM [1]: ≥ 75%
- inhibition at 1 µM [2]: ≥ 75%

SMILES: CC(=O)N(C)c1cnn(C(=O)N2CCC3(CC2)CN(Cc2ccc(N4CCOCC4)cc2)C3)c1 [Example 27, N-methyl-N-(1-(2-(4-morpholinobenzyl)-2,7-diazaspiro[3.5]nonane-7-carbonyl)-1H-pyrazol-4-yl)acetamide]
- inhibition at 1 µM [1]: 0 to 25%
- inhibition at 1 µM [2]: ≥ 75%

SMILES: CC(=O)N(C)c1cnn(C(=O)N2CC3CN(Cc4cccc(Oc5ccccn5)c4)CC3C2)c1 (stereo not drawn) [Example 238, N-methyl-N-(1-(5-(3-(pyridin-2-yloxy)benzyl)octahydropyrrolo[3,4-c]pyrrole-2-carbonyl)-1H-pyrazol-4-yl)acetamide]
- inhibition at 1 µM [1]: ≥ 75%
- IC50 [2]: 100 to 1000 nM
- inhibition at 1 µM [2]: ≥ 75%

SMILES: CC(=O)Nc1cnn(C(=O)N2CCN(Cc3cc(Cl)ccc3C(F)(F)F)CC2)c1 [Example 314, N-(1-(4-(5-chloro-2-(trifluoromethyl)benzyl)piperazine-1-carbonyl)-1H-pyrazol-4-yl)acetamide]
- inhibition at 1 µM [1]: ≥ 75%
- inhibition at 1 µM [2]: ≥ 75%

SMILES: CC(=O)N(C)c1cnn(C(=O)N2CCN(Cc3ccc(N4CCCC4)cc3)CC2)c1 [Example 197, N-methyl-N-(1-(4-(4-(pyrrolidin-1-yl)benzyl)piperazine-1-carbonyl)-1H-pyrazol-4-yl)acetamide]
- IC50 [1]: 100 to 1000 nM
- inhibition at 1 µM [1]: ≥ 75%
- IC50 [2]: 100 to 1000 nM
- inhibition at 1 µM [2]: ≥ 75%

SMILES: CS(=O)(=O)Nc1cnn(C(=O)N2CC3CN(Cc4cc(Cl)ccc4C(F)(F)F)CC3C2)c1 (stereo not drawn) [Example 275, N-(1-(5-(5-chloro-2-(trifluoromethyl)benzyl)octahydropyrrolo [3,4-c]pyrrole-2-carbonyl)-1H-pyrazol-4-yl)methanesulfonamide]
- IC50 [1]: 100 to 1000 nM
- inhibition at 1 µM [1]: ≥ 75%
- IC50 [2]: ≤ 100 nM
- inhibition at 1 µM [2]: ≥ 75%

SMILES: CC(=O)N(C)c1cnn(C(=O)N2CC3CN(Cc4ccc(Oc5ccc(Cl)cc5)cc4)CC3C2)c1 (stereo not drawn) [Example 245, N-(1-(5-(4-(4-chlorophenoxy)benzyl)octahydropyrrolo [3,4-c]pyrrole-2-carbonyl)-1H-pyrazol-4-yl)-N-methylacetamide]
- IC50 [1]: ≤ 100 nM
- inhibition at 1 µM [1]: ≥ 75%
- IC50 [2]: ≤ 100 nM
- inhibition at 1 µM [2]: ≥ 75%

SMILES: CC(=O)N(C)c1cnn(C(=O)N2CCN(Cc3cccc(N4CCOCC4)c3)CC2)c1 [Example 210, N-methyl-N-(1-(4-(3-morpholinobenzyl)piperazine-1-carbonyl)-1H-pyrazol-4-yl)acetamide]
- inhibition at 1 µM [1]: 0 to 25%
- inhibition at 1 µM [2]: ≥ 75%

SMILES: CC(=O)N(C)c1cnn(C(=O)N2CCC3(CCN(Cc4ccc(-c5ccccc5)cc4C)C3)C2)c1 (stereo not drawn) [Example 232, N-methyl-N-(1-(7-((3-methyl-[1,1′-biphenyl]-4-yl)methyl)-2,7-diazaspiro[4.4]nonane-2-carbonyl)-1H-pyrazol-4-yl)acetamide]
- IC50 [1]: ≤ 100 nM
- inhibition at 1 µM [1]: ≥ 75%
- IC50 [2]: ≤ 100 nM
- inhibition at 1 µM [2]: ≥ 75%

SMILES: CC(=O)N(C)c1cnn(C(=O)N2CC3(CCN(Cc4cccc(Oc5ccccc5)c4)CC3)C2)c1 [Example 229, N-methyl-N-(1-(7-(3-phenoxybenzyl)-2,7-diazaspiro[3.5]nonane-2-carbonyl)-1H-pyrazol-4-yl)acetamide]
- IC50 [1]: ≤ 100 nM
- inhibition at 1 µM [1]: ≥ 75%
- IC50 [2]: 1000 to 10000 nM
- inhibition at 1 µM [2]: 50 to 75%

SMILES: CN(Cc1cc(Cl)ccc1C(F)(F)F)[C@H]1C[C@@H]2CN(C(=O)n3cc(NS(C)(=O)=O)cn3)C[C@@H]2C1 [Example 278, N-(1-[[trans-5-([[5-chloro-2-(trifluoromethyl)phenyl]methyl](methyl)amino)-octahydrocyclopenta[c]pyrrol-2-yl)carbonyl]-1H-pyrazol-4-yl)methanesulfonamide]
- inhibition at 1 µM [1]: ≥ 75%
- inhibition at 1 µM [2]: ≥ 75%

SMILES: CN(c1cnn(C(=O)N2CCN(Cc3ccc(C(F)(F)F)cc3N3CCCC3)CC2)c1)S(C)(=O)=O [Example 218, N-methyl-N-(1-(4-(2-(pyrrolidin-1-yl)-4-(trifluoromethyl)benzyl)piperazine-1-carbonyl)-1H-pyrazol-4-yl)methanesulfonamide]
- IC50 [1]: 1000 to 10000 nM
- inhibition at 1 µM [1]: 25 to 50%
- IC50 [2]: 100 to 1000 nM
- inhibition at 1 µM [2]: ≥ 75%

SMILES: CC(=O)N(C)c1cnn(C(=O)N2CC3CN(Cc4ccc(N5CCCC5)c(C(F)(F)F)c4)CC3C2)c1 (stereo not drawn) [Example 97, N-methyl-N-(1-(5-(4-(pyrrolidin-1-yl)-3-(trifluoromethyl)benzyl)octahydropyrrolo[3,4-c]pyrrole-2-carbonyl)-1H-pyrazol-4-yl)acetamide]
- inhibition at 1 µM [1]: ≥ 75%
- inhibition at 1 µM [2]: ≥ 75%

SMILES: CC(=O)N(C)c1cnn(C(=O)N2CCN(Cc3ccccc3C)CC2)c1 [Example 212, N-methyl-N-(1-(4-(2-methylbenzyl)piperazine-1-carbonyl)-1H-pyrazol-4-yl)acetamide]
- IC50 [1]: 100 to 1000 nM
- inhibition at 1 µM [1]: ≥ 75%
- IC50 [2]: 100 to 1000 nM
- inhibition at 1 µM [2]: ≥ 75%

SMILES: CC(=O)N(C)c1cnn(C(=O)N2CC3CN(Cc4ccc(-c5cccnn5)cc4Cl)CC3C2)c1 (stereo not drawn) [Example 260, N-(1-(5-(2-chloro-4-(pyridazin-3-yl)benzyl)octahydropyrrolo[3,4-c]pyrrole-2-carbonyl)-1H-pyrazol-4-yl)-N-methylacetamide]
- inhibition at 1 µM [1]: ≥ 75%
- inhibition at 1 µM [2]: ≥ 75%

SMILES: CC(=O)N(C)c1cnn(C(=O)N2CC3CN(Cc4ccc(-c5ncccn5)cc4Cl)CC3C2)c1 (stereo not drawn) [Example 261, N-(1-(5-(2-chloro-4-(pyrimidin-2-yl)benzyl)octahydropyrrolo[3,4-c]pyrrole-2-carbonyl)-1H-pyrazol-4-yl)-N-methylacetamide]
- inhibition at 1 µM [1]: ≥ 75%
- inhibition at 1 µM [2]: ≥ 75%

SMILES: CC(=O)N(C)c1cnn(C(=O)N2CCN(Cc3cccc(Oc4ccccc4)c3)CC2)c1 [Example 202, N-methyl-N-(1-(4-(3-phenoxybenzyl)piperazine-1-carbonyl)-1H-pyrazol-4-yl)acetamide]
- IC50 [1]: ≤ 100 nM
- inhibition at 1 µM [1]: ≥ 75%
- IC50 [2]: ≤ 100 nM
- inhibition at 1 µM [2]: ≥ 75%

SMILES: CC(=O)N(C)c1cnn(C(=O)N2CC3CN(Cc4ccc(N5CC6CCC(C5)O6)cc4C(F)(F)F)CC3C2)c1 (stereo not drawn) [Example 101, N-(1-(5-(4-(8-oxa-3-azabicyclo[3.2.1]octan-3-yl)-2-(trifluoromethyl)benzyl)octahydropyrrolo[3,4-c]pyrrole-2-carbonyl)-1H-pyrazol-4-yl)-N-methylacetamide]
- inhibition at 1 µM [1]: ≥ 75%
- inhibition at 1 µM [2]: ≥ 75%

SMILES: CC(=O)N(C)c1cnn(C(=O)N2CC3CN(Cc4cccc(N5CCOCC5)c4)CC3C2)c1 (stereo not drawn) [Example 121, N-methyl-N-(1-(5-(3-morpholinobenzyl)octahydropyrrolo[3,4-c]pyrrole-2-carbonyl)-1H-pyrazol-4-yl)acetamide]
- inhibition at 1 µM [1]: 50 to 75%
- inhibition at 1 µM [2]: ≥ 75%

SMILES: CC(=O)N(C)c1cnn(C(=O)N2CCN(Cc3ccc(Cl)c(Cl)c3)CC2)c1 [Example 196, N-(1-(4-(3,4-dichlorobenzyl)piperazine-1-carbonyl)-1H-pyrazol-4-yl)-N-methylacetamide]
- IC50 [1]: 100 to 1000 nM
- inhibition at 1 µM [1]: ≥ 75%
- inhibition at 1 µM [2]: ≥ 75%

SMILES: CC(=O)N(C)c1cnn(C(=O)N2CCC3(CC2)CN(Cc2ccc(N4CCCC4)cc2)C3)c1 [Example 25, N-methyl-N-(1-(2-(4-(pyrrolidin-1-yl)benzyl)-2,7-diazaspiro[3.5]nonane-7-carbonyl)-1H-pyrazol-4-yl)acetamide]
- inhibition at 1 µM [1]: 50 to 75%
- inhibition at 1 µM [2]: ≥ 75%

SMILES: CC(=O)N(C)c1cnn(C(=O)N2CC3(CCN(Cc4cccc(C)c4)CC3)C2)c1 [Example 83, N-methyl-N-(1-(7-(3-methylbenzyl)-2,7-diazaspiro[3.5]nonane-2-carbonyl)-1H-pyrazol-4-yl)acetamide]
- inhibition at 1 µM [1]: 25 to 50%
- inhibition at 1 µM [2]: 25 to 50%

SMILES: CC(=O)Nc1cnn(C(=O)N2CC3CN(Cc4cc(Cl)cc(C(F)(F)F)c4)CC3C2)c1 (stereo not drawn) [Example 315, N-(1-(5-(3-chloro-5-(trifluoromethyl)benzyl)octahydropyrrolo [3,4-c]pyrrole-2-carbonyl)-1H-pyrazol-4-yl)acetamide]
- inhibition at 1 µM [1]: ≥ 75%
- inhibition at 1 µM [2]: ≥ 75%

SMILES: CC(=O)N(C)c1cnn(C(=O)N2C[C@H]3C[C@@H](N(C)Cc4cc(N5CCCC5)ccc4C(F)(F)F)C[C@H]3C2)c1 [Example 167, N-methyl-N-(1-(cis-5-(methyl(5-(pyrrolidin-1-yl)-2-(trifluoromethyl)benzyl)amino)octahydrocyclopenta[c]pyrrole-2-carbonyl)-1H-pyrazol-4-yl)acetamide]
- inhibition at 1 µM [1]: ≥ 75%
- inhibition at 1 µM [2]: ≥ 75%

SMILES: CC(=O)N(C)c1cnn(C(=O)N2CC3(CCN(Cc4ccc(Cl)c(Cl)c4)CC3)C2)c1 [Example 18, N-(1-(7-(3,4-dichlorobenzyl)-2,7-diazaspiro[3.5]nonane-2-carbonyl)-1H-pyrazol-4-yl)-N-methylacetamide]
- inhibition at 1 µM [1]: ≥ 75%
- inhibition at 1 µM [2]: 25 to 50%

SMILES: CC(=O)N(C)c1cnn(C(=O)N2CCC3(CC2)CN(Cc2ccc(CN4CCOCC4)cc2)C3)c1 [Example 233, N-methyl-N-(1-(2-(4-(morpholinomethyl)benzyl)-2,7-diazaspiro[3.5]nonane-7-carbonyl)-1H-pyrazol-4-yl)acetamide]
- inhibition at 1 µM [1]: 0 to 25%
- inhibition at 1 µM [2]: 50 to 75%
